# From patent US9023894B2, “Synergistic combinations comprising a renin inhibitor for cardiovascular diseases” (priority 2000, dated 2015)
# Entries after “also recorded” stand apart in the source; their conditions may differ.
# Assays:
# [1] = tested on: SHR with endothelial dysfunction; test: Endothelial dysfunction test: SHR treated with the NO synthesis inhibitor L-NAME for 12 weeks; type: in vivo, rat; conditions: for proteinuria / kidney lesions: low doses; for proteinuria / survival rates: drugs in drinking fluid; for kidney lesions: kidney sections; for survival rates: low, non-blood pressure reducing doses
# Experimental: Male 20-24 week-old SHR, purchased from RCC Ldt (Fullingsdorf, Switzerland), are maintained in a temperature- and light-controlled room with free access to rat chow (Nafag 9331, Gossau, Switzerland) and tap water. The experiment is performed in accordance with the NIH guidelines and approved by the Canton Veterinary office (Bew 161, Kantonales Veterinäramt, Liestal, Switzerland). All rats are treated with the NO synthesis inhibitor L-NAME (Sigma Chemicals) administered in drinking water (50 mg/l) for 12 weeks. The average daily dose of L-NAME calculated from the water consumed was 2.5 mg/kg/d (range 2.1-2.7).
# The rats can be divided into 5 groups: group 1, control (n=40); Group 2, the compound of formula (I) in form of the hemi-fumarate (ren1; n=40); Group 3, enalapril (ena1; n=30); Group 4, a combination (ena1ren1) of enalapril and the compound of formula (I) in form of the hemi-fumarate; (n=30) and Group 5, the compound of formula (I) in form of the hemi-fumarate (ren2—higher dose; n=30). The drugs are administered in drinking fluid.
# Body weight is measured every week. Systolic blood pressure and heart rate are recorded by tail cuff plethysmography 3 and 2 weeks before starting the study and at 2 weeks after drug administration. Urine is collected over a 24 hour period from rats kept in individual (metabolic) cages the week before starting treatment and at weeks 4 and 12 for volume measurement and protein, creatinine, sodium and potassium determination using standard laboratory methods. At the same time points, blood samples are withdrawn from the retro-orbital plexus (maximum 1 ml) for creatinine, Na^+ and K^+ assays.
# Ten rats from each group are sacrificed at 4 weeks for collection of kidney and heart for morphological analysis. The remaining rats are sacrificed at 12 weeks. Cardiac and kidney weight is recorded. Terminal blood sampling is performed in 5% EDTA at 4 (morphometry study) and 12 (end of the study) weeks for aldosterone, determination by radioimmunoassay using a DPC coat-a-count aldosterone-RIA kit (Bühlmann, Switzerland).
# All data are expressed as mean±SEM. Statistical analysis is performed using a one-way ANOVA, followed by a Duncan's multiple range test and a Newman-Keuls test, 7 for comparison between the different groups. Results with a probability value of less than 0.05 are deemed statistically significant.
# normotensive rats = conditions: Ang II at 1 mg/kg, after treatment; cited from earlier work
SMILES,proteinuria [1],kidney lesions [1],survival rates [1],pressor effect of Ang II (normotensive rats),survival rates ([1]; listed as renin inhibitor of formula (I))
"CCOC(=O)[C@H](CCc1ccccc1)N[C@@H](C)C(=O)N1CCC[C@H]1C(=O)O [enalapril, reference compound]",no decrease in proteinuria,no reduction of kidney lesions,improved survival; also recorded: significant improvements in survival rates,–,–
"COCCCOc1cc(C[C@@H](C[C@H](N)[C@@H](O)C[C@H](C(=O)NCC(C)(C)C(N)=O)C(C)C)C(C)C)ccc1OC [2(S),4(S),5(S),7(S)—N-(3-amino-2,2-dimethyl-3-oxopropyl)-2,7-di(1-methylethyl)-4-hydroxy-5-amino-8-[4-methoxy-3-(3-methoxy-propoxy)phenyl]-octanamide]",no decrease in proteinuria,no reduction of kidney lesions,significant improvements in survival rates,can be reducted,improved survival
